Columns and labels:
estrogenicity = settings: cited from earlier work
CYP1A2 = target: T1, CYP1A2 (Homo sapiens, UniProt P05177); experiment: Single concentration Kobs assay (time-dependent inhibition) in HLM; format: biochemical; settings: for Kobs 1A2: HLM, 0.02 min^−1 indicates TD inhibition potential; for Kobs 1A2 / inhibition at 30 min: single concentration; for Single concentration Kobs assay (risk bin) 1A2: TD inhibition class from Kobs vs 0.02 min^−1 (Table 5 traffic lights); for inhibition at 30 min: human, human liver microsomes, significant if >50%, read-out: 1A2 R_Inh% (reversible inhibition)
T1 construct: Using HLM as the enzyme source; from tissue; host or cells: human liver microsomes
T1 sequence (P05177 1-516): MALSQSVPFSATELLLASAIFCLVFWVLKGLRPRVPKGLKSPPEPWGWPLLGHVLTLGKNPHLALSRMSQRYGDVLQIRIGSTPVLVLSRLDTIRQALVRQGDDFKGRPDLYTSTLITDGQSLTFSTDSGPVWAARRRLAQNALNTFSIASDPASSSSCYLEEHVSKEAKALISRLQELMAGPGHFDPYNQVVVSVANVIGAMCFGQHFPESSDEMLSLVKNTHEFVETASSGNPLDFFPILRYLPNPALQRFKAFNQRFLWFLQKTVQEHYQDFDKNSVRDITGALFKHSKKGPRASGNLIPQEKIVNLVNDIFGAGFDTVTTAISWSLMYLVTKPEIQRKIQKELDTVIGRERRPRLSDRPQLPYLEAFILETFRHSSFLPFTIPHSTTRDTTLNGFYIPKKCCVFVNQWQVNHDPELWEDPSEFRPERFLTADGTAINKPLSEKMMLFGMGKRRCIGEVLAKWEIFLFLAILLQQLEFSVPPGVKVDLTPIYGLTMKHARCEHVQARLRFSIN
Text: (§1) CYP inhibition evaluation is typically performed by either IC50 at single-point or IC50 Shift or abbreviated assay such as the first-order inactivity rate constant (K obs ) at single concentration.
(§2) This method yielded good correlations between the percent inhibition at 10 or 25 μ M and kinact/KI. Evaluation of TD inhibition at single concentration has been implemented in several drug discovery programs. […] Therefore, in this study, a single K obs approach has been utilized to understand the TD inhibition potential of TbB ligands. Ideally, the inhibition of CYPs can be reversible or irreversible. The data obtained from single-concentration K obs studies were analyzed to understand the same. From the data presented in Table 4, the TbB ligands have values less than 50% for reversible inhibition (R_Inh). As the qualified % reversible inhibition is considered significant if >50%, no significant reversible inhibition is observed for TbB ligands. Knowledge about enzyme inactivation half-life (E½) is also equally important as it would provide insight into the TD inhibition of a compound. E½ can be used to bin the compounds as positive or negative TD inhibitors if the values are <28 or >28, respectively. The TbB ligand 223-2 is observed to be a weak positive TD inhibitor of 1A2 and is negative TD inhibitor to the other six CYP isoforms.
(§3) The time-dependent inhibition (TDI) potential of test compounds against CYP1A2, 2B6, 2C8, 2C9, 2C19, 2D6, 3A4/5 isoforms were determined using Human liver microsomes. Assay is performed in 96-deep well plate format (n = 1). Positive controls and DMSO as negative control in each assay. To obtain 100 μ M working stock solution, 1 μ L of blank DMSO/test/reference compounds to 100 μ L 1× DPBS buffer was added and labeled as dilution plate. To the primary incubation plate, 45 μ L of primary mix was dispensed to the desired wells containing 25 μ L HLM, 10 μ L MgCl2, and 10 μ L of NADPH working solutions. To the secondary incubation plate, 95 μ L of secondary mix was dispensed to the desired wells containing 20 μ L MgCl2, 20 μ L NADPH, 10 μ L respective substrates for CYP isoform working solutions and 45 μ L 1× DPBS buffer. […] Pre-incubated the dilution plate along with primary incubation plate at 37 °C for 15 min at 450 rpm. The reaction was carried out in triplicate. After the incubation, the reaction was quenched by adding 150 μ L ice cold stop solution to all the wells followed by centrifuging the samples at 4000 rpm, 4 °C for 15 min. The supernatant samples were then transferred into vials for LC-MS/MS analysis. […]

CYP2C19 = target: T2, CYP2C19 (Homo sapiens, UniProt P33261); experiment: as above; format: biochemical; settings: for Kobs 2C19: HLM, 0.02 min^−1 indicates TD inhibition potential; for Kobs 2C19 / inhibition at 30 min: single concentration; for Single concentration Kobs assay (risk bin) 2C19: TD inhibition class from Kobs vs 0.02 min^−1 (Table 5 traffic lights); for inhibition at 30 min: human, human liver microsomes, significant if >50%, read-out: 2C19 R_Inh% (reversible inhibition)
T2 construct: Using HLM as the enzyme source; from tissue; host or cells: human liver microsomes
T2 sequence (P33261 whole entry): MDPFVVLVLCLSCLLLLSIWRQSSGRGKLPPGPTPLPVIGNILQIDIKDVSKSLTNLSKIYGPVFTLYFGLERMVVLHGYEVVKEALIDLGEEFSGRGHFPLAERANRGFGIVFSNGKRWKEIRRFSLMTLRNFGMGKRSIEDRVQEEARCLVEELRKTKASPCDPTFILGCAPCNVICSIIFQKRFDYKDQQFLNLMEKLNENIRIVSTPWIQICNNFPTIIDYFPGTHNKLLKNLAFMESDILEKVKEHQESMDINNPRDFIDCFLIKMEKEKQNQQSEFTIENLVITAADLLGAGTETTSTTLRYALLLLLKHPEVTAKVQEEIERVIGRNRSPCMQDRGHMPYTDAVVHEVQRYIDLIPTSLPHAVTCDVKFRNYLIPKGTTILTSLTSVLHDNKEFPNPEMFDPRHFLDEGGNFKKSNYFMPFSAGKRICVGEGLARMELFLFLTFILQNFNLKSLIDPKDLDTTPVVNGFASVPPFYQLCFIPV
Text: as §1, §2, §3

CYP2C9 = target: T3, CYP2C9 (Homo sapiens, UniProt P11712); experiment: as above; format: biochemical; settings: for Kobs 2C9: HLM, 0.02 min^−1 indicates TD inhibition potential; for Kobs 2C9 / inhibition at 30 min: single concentration; for Single concentration Kobs assay (risk bin) 2C9: TD inhibition class from Kobs vs 0.02 min^−1 (Table 5 traffic lights); for inhibition at 30 min: human, human liver microsomes, significant if >50%, read-out: 2C9 R_Inh% (reversible inhibition)
T3 construct: Using HLM as the enzyme source; from tissue; host or cells: human liver microsomes
T3 sequence (P11712 whole entry): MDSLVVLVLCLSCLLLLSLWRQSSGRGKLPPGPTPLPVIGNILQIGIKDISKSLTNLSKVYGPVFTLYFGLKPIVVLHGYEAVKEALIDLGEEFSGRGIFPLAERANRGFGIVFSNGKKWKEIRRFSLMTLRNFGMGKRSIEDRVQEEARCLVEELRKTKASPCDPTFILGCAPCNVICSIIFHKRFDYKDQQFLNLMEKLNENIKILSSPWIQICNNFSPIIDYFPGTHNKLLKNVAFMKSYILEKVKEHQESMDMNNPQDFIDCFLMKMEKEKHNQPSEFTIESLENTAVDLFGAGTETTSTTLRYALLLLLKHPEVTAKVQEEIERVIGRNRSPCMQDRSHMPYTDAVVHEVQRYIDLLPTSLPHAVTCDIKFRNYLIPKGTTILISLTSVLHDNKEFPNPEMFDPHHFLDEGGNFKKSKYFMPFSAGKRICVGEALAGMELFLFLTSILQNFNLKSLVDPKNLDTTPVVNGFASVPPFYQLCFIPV
Text: as §1, §2, §3

| Compound | estrogenicity by in vitro studies (estrogenicity) | Kobs 1A2 (CYP1A2) [min⁻¹] | Kobs 1A2 (CYP1A2; listed as 223-02) [min⁻¹] | Single concentration Kobs assay (risk bin) 1A2 (CYP1A2) | inhibition at 30 min (CYP1A2) [%] | Kobs 2C19 (CYP2C19) [min⁻¹] | Kobs 2C19 (CYP2C19; listed as 223-02) [min⁻¹] | Single concentration Kobs assay (risk bin) 2C19 (CYP2C19) | inhibition at 30 min (CYP2C19) [%] | Kobs 2C9 (CYP2C9) [min⁻¹] | Single concentration Kobs assay (risk bin) 2C9 (CYP2C9) | inhibition at 30 min (CYP2C9) [%] | Kobs 1A2 (CYP1A2; listed as 223-03) [min⁻¹] | Kobs 2C19 (CYP2C19; listed as 223-03) [min⁻¹] | Kobs 2C9 (CYP2C9; listed as 223-03) [min⁻¹] |
| --- | --- | --- | --- | --- | --- | --- | --- | --- | --- | --- | --- | --- | --- | --- | --- |
| COc1cc(-c2nnn(-c3cc(OC)c(O)c(OC)c3)n2)cc(OC)c1O [223-2] | potentially non-estrogenic | 0.0159 | 0.01594 | weak positive inhibitor | < 50 | 0.0206 | 0.02058 | weak positive inhibitor | < 50 | 0.005304 | negative inhibitor | < 50 |  |  |  |
| Cc1cc(-c2nnn(-c3cc(C)c(O)c(C)c3)n2)cc(C)c1O [223-3] | potentially non-estrogenic | 0.0333 |  | positive inhibitor | < 50 | 0.0306 |  | positive inhibitor | < 50 | 0.0748 | positive inhibitor | < 50 | 0.03334 | 0.03055 | 0.07477 |
| Oc1ccc(-c2nnn(-c3ccc(O)cc3)n2)cc1 [223-10] |  | 0.01456 |  | weak positive inhibitor | < 50 | 0.00365 |  | negative inhibitor | < 50 |  | positive inhibitor | < 50 |  |  |  |
